Type in all cases: ADME, organism-based
For data set [1], the system named is Brain. In words: Unbound fraction in CD1 mouse brain at 25 mg/kg, po administered as single dose measured at 1 hr post dose by LC-MS/MS analysis. The following applies: in vivo.
The nature of data set [2]: AUC in CD1 mouse at 25 mg/kg, po. The conditions noted are these: in vivo.
In data set [3] the test system is Brain. In words: Unbound fraction in CD1 mouse brain at 25 mg/kg, po administered as single dose measured at 6 hrs post dose by LC-MS/MS analysis. The conditions noted are these: in vivo.
A short description of data set [4]: Ratio of unbound fraction in CD1 mouse brain to plasma at 25 mg/kg, po after 6 hrs by LC-MS/MS analysis. The conditions noted are these: read-out: K(p,uu,brain).
The nature of data set [5]: Ratio of unbound fraction in CD1 mouse brain to plasma at 50 mg/kg, po after 6 hrs by LC-MS/MS analysis. The conditions noted are these: read-out: K(p,uu,brain).

For `CC1(C)OCCn2c1nc1c(N3CCOCC3)nc(-c3cnc(N)nc3)nc12` [PAXALISIB], the results for the “Drug uptake(free)” value in the data set with Brain [1] and with Brain [3] were 0.32 µM and 0.16 µM, respectively. In data set [2], the AUC is 47 µM·h.
Turning to `COC(C)(C)c1cc2nc(-c3cnc(N)nc3)nc(N3CCOCC3)c2s1`, in data set [4], the Kp uu at 6 h is 0.4.
As for `COC1(c2sc3c(N4CCOCC4)nc(-c4cnc(N)nc4)nc3c2C)COC1`, the Kp uu at 6 h in data set [5] is 0.4.

The term AUC denotes concentration integrated over time. A high value points to high exposure.

The record behind these values is ChEMBL document CHEMBL3813614 (ACS Med Chem Lett, 2016).
